Assay results published in publication PMC3684613 (PLoS ONE, 2013).
Where two headings read alike, the source gives them in different places.

What was measured:
[1] = system: P. falciparum 3D7; set-up: method as in ChEMBL-NTD; conditions: ref ChEMBL-NTD, cited from earlier work
[2] = system: P. falciparum 3D7; experiment: DAPI stain fluorescent high content imaging assay, P. falciparum 3D7 (confirmatory screen, Avery); conditions: Plasmodium falciparum; for EC50: 3D7, read-out: EC50_nM; for inhibition of growth at 5 µM: 3D7, read-out: percent_inh @ 5 uM
[3] = original screening data, source (GSK, GNF, StJude), several values separated by ';' in order of sources
[4] = values follow the order of the source (GNF; GSK; StJude)

Compound | EC50 [2] | inhibition of growth at 5 µM [2] | further results
COc1cc2c3cc1Oc1c(OC)c(OC)cc4c1C(Cc1ccc(O)c(c1)Oc1ccc(cc1)CC3N(C)CC2)N(C)CC4 (stereo not drawn) [MMV007474] | 1270 nM | 96% | EC50 [1, 4]: 997 nM
COc1ccc(CCNC(=O)c2cc(S(=O)(=O)N3CC(C)CC(C)C3)ccc2Sc2ccc(F)cc2)cc1OC (stereo not drawn) [MMV007557] | 632 nM | 97% | EC50 ([1]; source GNF (GNF-Pf ids)): 1050 nM
Cc1ccc(CSCc2ccc(C(=O)NC3CC3)o2)cc1 [MMV007571] | 635 nM | 97% | EC50 ([1]; source GNF): 418 nM
Cc1ccccc1OCCSc1nc2ccc(NC(=O)c3ccccc3)cc2s1 [MMV007577] | 1120 nM | 93% | EC50 ([1]; source GNF (GNF-Pf ids)): 9760 nM
COc1ccc(C(=O)C(CCC(CNC(C)(C)C)C(=O)c2ccc(OC)cc2)CNC(C)(C)C)cc1 (stereo not drawn) [MMV007591] |  | 85% | EC50 [1, 4]: 1120 nM
Cc1ccc(C)c(-c2csc(Nc3ccc(C)c(C)c3)n2)c1 [MMV007654] |  | 94% | EC50 [1, 4]: 493 nM
CCCCCCOC(=O)C1=C(C)NC(=O)NC1c1ccccc1F (stereo not drawn) [MMV007686] | 106 nM | 95% | EC50 ([1]; source GNF (GNF-Pf id)): 6760 nM
COc1ccc(C(C)=O)cc1N1C(=O)C2C(C1=O)C1(c3ccccc3)C(=O)C2(c2ccccc2)C(c2ccc(C)cc2)=C1c1ccc(C)cc1 (stereo not drawn) [MMV007695] | 179 nM | 96% | EC50 ([1]; source GNF (GNF-Pf id)): 2460 nM
CCCCc1c(CCC)c(=N)c2ccccc2n1C [MMV007764] | 716 nM | 77% | EC50 [1, 4]: 311 nM
CCOc1ccccc1NC(=O)CN1CCN(C(=O)c2ccco2)CC1 [MMV007791] |  | 83% | EC50 [1, 3]: 5460 nM
COc1ccc2c(c1)OC(O)(C(F)(F)C(F)(F)F)CC2=O (stereo not drawn) [MMV007839] | 283 nM |  | EC50 ([1]; source GNF (GNF-Pf id)): 442 nM
CCCCN(CCCC)S(=O)(=O)c1ccc(NC(=O)c2ccco2)cc1 [MMV007881] |  | 78% | EC50 [1, 3]: 1420 nM
CCCCOc1ccc(C(=O)Nc2cc(C)on2)cc1 [MMV007906] |  | 73% | EC50 [1, 3]: 3160 nM
CCOc1ccc(CCNC(=O)c2cccs2)cc1OCC [MMV007978] |  | 95% | EC50 [1, 3]: 890 nM
CN1CCN(c2c3c(c(C#N)c4nc5ccccc5n24)CCC3)CC1 [MMV008127] | 4000 nM |  | EC50 [1, 3]: 1180 nM; inhibition of growth at 2 µM ([2]; 3D7, read-out: percent_inh @ 2 uM): 42%
O=C(O)C1Cc2c([nH]c3ccccc23)C(c2ccc(Cl)cc2Cl)N1 (stereo not drawn) [MMV008138] | 350 nM |  | EC50 ([1]; source GNF (GNF-Pf id)): 1020 nM; EC50 ([1]; source GSK (TCMDC id)): 954 nM
Cc1c(C)n(Cc2ccc(F)cc2)c2ccc(C(=O)NCc3ccco3)cc12 [MMV008149] |  | 52% | EC50 ([1]; source GNF): 78.2 nM
COc1cc(OC)cc(N2C(=O)N(Cc3ccc(C(C)(C)C)cc3)c3ccccc3S2(=O)=O)c1 [MMV008173] | 1430 nM | 97% | EC50 ([1]; source GNF (GNF-Pf ids)): 3750 nM
Oc1c2c(nc3cc(-c4ccccc4)nn13)CCCC2 [MMV008270] |  | 77% | EC50 [1, 3]: 1930 nM
CCCc1c(CC)c(=N)c2ccccc2n1C [MMV008416] | 242 nM | 69% | EC50 ([1]; source GNF (GNF-Pf id)): 762 nM
CCN1CCN(c2c(C(=O)c3ccccc3)cnc3cc(OC)c(OC)cc23)CC1 [MMV008474] |  | 59% | EC50 ([1]; source GNF (GNF-Pf ids)): 3020 nM
O=C(CCc1ccccc1)c1ccccc1OCC(O)CN1CCCCC1 (stereo not drawn) [MMV009015] | 676 nM | 97% | EC50 ([1]; source GNF): 881 nM
CCN(CC)c1ccc(NC(=O)c2cccs2)cc1 [MMV009060] |  | 88% | EC50 ([1]; source GNF): 414 nM
OC(CNC1CCCCC1)Cn1c2ccccc2c2ccccc21 (stereo not drawn) [MMV009063] | 293 nM | 93% | EC50 ([1]; source GNF (GNF-Pf id)): 483 nM; EC50 ([1]; source GSK (TCMDC id)): 991 nM
Cc1cc(Nc2ccc3ccccc3c2)n2ncnc2n1 [MMV011099] | 242 nM |  | EC50 ([1]; source GSK (TCMDC id)): 173 nM
CC(C)(C)c1ccc(C2CC3=Nc4ccccc4N(C(=O)c4ccccc4Cl)C(c4ccc(F)cc4)C3=C(O)C2)cc1 (stereo not drawn) [MMV011436] | 946 nM | 96% | EC50 [1, 4]: 2630 nM
COC(=O)c1ccc(C2C3=C(O)CC(c4ccc(F)cc4)CC3=Nc3ccccc3N2C(=O)c2ccccc2)cc1 (stereo not drawn) [MMV011438] | 326 nM | 98% | EC50 [1, 4]: 332 nM
COc1ccc(C(=O)Nc2nonc2-c2ccc(OC)c(OC)c2)cc1Cl [MMV011567] | 516 nM | 92% | EC50 ([1]; source GNF): 1780 nM; EC50 ([1]; source GSK): 675 nM

Continued by falling EC50 [2], values first:

EC50 [2] | Compound | inhibition of growth at 5 µM [2] | further results
1790 nM | CC(=O)NCCc1nc2ccccc2n1Cc1ccc(C(C)C)cc1 [MMV007617] | 97% | EC50 ([1]; source GNF): 764 nM
1180 nM | COc1ccc(C2C(C(=O)Nc3cccc(OC)c3)c3ccccc3C(=O)N2C2CCCCC2)cc1 (stereo not drawn) [MMV008455] | 97% | EC50 ([1]; source GNF (GNF-Pf ids)): 1110 nM
1180 nM | CCOC(=O)C1CCN(C(=O)CN2C(=O)c3ccccc3C2c2c[nH]c3ccccc23)CC1 (stereo not drawn) [MMV011576] | 98% | EC50 [1, 3]: 519 nM
1140 nM | COc1nc(Nc2ccc(C(C)C)cc2)nc(OC)n1 [MMV007808] | 88% | EC50 [1, 3]: 677 nM
1130 nM | CC1CCN(Cc2c(O)ccc3cc(-c4nc5ccccc5s4)c(=O)oc23)CC1 [MMV009127] | 91% | EC50 ([1]; source GNF (GNF-Pf ids)): 12500 nM
1110 nM | CCCn1c(=N)c(C(=O)NC2CCCCC2)cc2c(=O)n3cccc(C)c3nc21 [MMV008829] | 96% | EC50 ([1]; source GNF): 460 nM
969 nM | COc1ccc2nc(C)cc(Nc3cccc(O)c3)c2c1 [MMV008212] | 98% | EC50 [1, 3]: 228 nM
947 nM | Cc1ccc(Cn2c(N3CCC(C(=O)NCc4cccs4)CC3)nc3ccccc32)cc1 [MMV007564] | 73% | EC50 ([1]; source GNF): 529 nM; EC50 ([1]; source GSK): 748 nM
939 nM | O=C(NCc1ccco1)C1CCN(S(=O)(=O)c2ccc(Br)cc2)CC1 [MMV007430] | 93% | EC50 [1, 3]: 362 nM
826 nM | O=C(Nc1ccc(C23CC4CC(CC(c5ccccc5)(C4)C2)C3)cc1)c1cccs1 [MMV007574] | 96% | EC50 ([1]; source GNF (GNF-Pf ids)): 645 nM
795 nM | O=C1c2ccc3c4c(ccc(c24)C(=O)N1CCCCO)C(=O)N(CCCCO)C3=O [MMV009085] | 97% | EC50 [1, 4]: 354 nM
697 nM | Cc1ccccc1OCCSc1nc2ccc(NC(=O)c3cccs3)cc2s1 [MMV007396] | 96% | EC50 ([1]; source GNF (GNF-Pf ids)): 497 nM
646 nM | Oc1ccc2ccccc2c1CNc1nc2ccccc2[nH]1 [MMV011832] | 83% | EC50 [1, 4]: 652 nM
641 nM | CCN(CC)S(=O)(=O)c1ccc(-c2csc(Nc3ccc(C)c(C)c3)n2)cc1 [MMV009108] | 97% | EC50 [1, 3]: 2100 nM
552 nM | CN1C=C(c2ccc3ccccc3n2)C(c2c[nH]c3ccccc23)c2ccccc21 (stereo not drawn) [MMV008160] | 95% | EC50 [1, 4]: 1140 nM
370 nM | CCOc1cc2c(cc1OCC)C(c1cc(OC)c(O)cc1Cl)NCC2 (stereo not drawn) [MMV008956] | 98% | EC50 ([1]; source GNF (GNF-Pf id)): 362 nM; EC50 ([1]; source GSK (TCMDC id)): 748 nM
350 nM | Cc1ccc(Nc2nc(-c3ccccn3)cs2)cc1 [MMV007907] | 79% | EC50 ([1]; source GNF): 407 nM
232 nM | CCOC(=O)c1cnc2c(C)cc(C)cc2c1Nc1ccc(OC)c(OC)c1 [MMV008294] | 96% | EC50 ([1]; source GNF (GNF-Pf id)): 1780 nM
212 nM | Cc1cc(Nc2ccc(Cl)cc2)n2nc(C(F)(F)F)nc2n1 [MMV011256] |  | EC50 ([1]; source GSK (TCMDC id)): 117 nM
